Measurements as given in patent EP4702986A1, “POLYPEPTIDE AND USE THEREOF” (Biocells (Beijing) Biotech Co., Ltd., priority 2023, dated 2024).
Read-outs that look alike come from different tables or passages of the source. Numbered stars: 1 amine (or outer) side, 2 acyl side, 3 side chain; on linkers, the order of the positions; unused ones are H or OH. Bridge positions count the residues as written; N and C are the ends. Square brackets hold non-standard residues; d marks the D form. Side chains are listed from the residue outwards. Peptide text beside a SMILES is read from it. * marks the point of attachment. C18 diacid = O=C(O)CCCCCCCCCCCCCCCCC(=O)*; γGlu = O=C(O)[C@H](CCC(=O)[*:2])N[*:1]; Fumaryl(OMe) = COC(=O)/C=C/C(=O)*; Suc = O=C(CCC(=O)[*:2])[*:1]; Orn = NCCC[C@H](N)C(=O)O; Dab = NCC[C@H](N)C(=O)O; AEEA = NCCOCCOCC(=O)O

Target: T1, human ETA receptor (Homo sapiens, UniProt P25101)
T1 construct: expressed in transfected cells; host or cells: 293T-17 cells, transient transfection
T1 sequence (P25101 21-427): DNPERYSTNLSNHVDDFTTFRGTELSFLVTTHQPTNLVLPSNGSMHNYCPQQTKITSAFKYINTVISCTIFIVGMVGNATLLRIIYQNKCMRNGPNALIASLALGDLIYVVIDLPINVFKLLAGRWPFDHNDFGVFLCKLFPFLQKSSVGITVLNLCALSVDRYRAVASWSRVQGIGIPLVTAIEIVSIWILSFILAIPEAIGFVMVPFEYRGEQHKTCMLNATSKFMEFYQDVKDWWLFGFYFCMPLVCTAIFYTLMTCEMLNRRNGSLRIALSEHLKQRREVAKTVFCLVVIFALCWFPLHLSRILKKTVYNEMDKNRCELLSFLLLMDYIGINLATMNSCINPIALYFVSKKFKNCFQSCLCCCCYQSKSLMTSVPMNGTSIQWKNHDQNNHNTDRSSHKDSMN
Assay: Selectivity of polypeptides on human ETA receptor (IP-One Gq kit, % of positive control ET1)
Format: cell-based
Settings: read-out: hETAR agonist activity, percentage of activity relative to ET1
Procedure: 293T-17 cells were seeded at a density of 650,000 cells per well in a 6-well plate and cultured overnight in an incubator at 37°C and 5% CO2. Afterward, the cells were transfected with an expression vector, PCDNA3.1-hETA which contained a human ETA receptor gene, at a plasmid concentration of 2.5 µg per well. The cells were further cultured for 48 hours, and green fluorescence expression was observed under a fluorescence microscope. The cells were then digested with trypsin and counted. The activity of compounds on the human ETA receptor was determined with the IP-One Gq kit from Cisbio Bioassays. The cells were suspended in Stim Buffer provided in the kit and the cell suspension was added to a 96-well detection plate at 7 µL cell suspension (containing 30,000 cells) per well. The polypeptides to be screened for activity (prepared according to the Preparation Example of the invention) and polypeptide human endothelin ET1 as positive control were dissolved in Stim B to be at a concentration of 2×, and 7 µL was added to the test cells, while 7 µL of PBS solution was added to the cells in the negative control wells. Human endothelin ET1 (ET1: […] (C1-C15,C3-C11)) set forth in SEQ ID No. 85 was used as the positive control polypeptide. The plate was sealed and incubated at 37°C for 1 h in a cell culture incubator. Detection wells, positive control wells, and PBS control wells were each added with 3 µL of IP1 d2 working solution and 3 µL of IP1 Tb cryptotate Antibody working solution. The plate was sealed and incubated in the dark at room temperature (25°C±5°C) for 1 h. The plate seal was removed, and the […] at 665 nm and 620 nm was measured with an ID5 microplate reader. The ratio of the acceptor emission signal to the donor emission signal, i.e., the value of (signal at 665 nm/signal at 620 nm)×10^4, was calculated for each well. With F3 representing the average value of values of signal at 665 nm/signal at 620 nm determined for the test sample at a specific concentration, F5 representing the average value of values of signal at 665 nm/signal at 620 nm determined for the positive control human endothelin ET1 at the same concentration, and T3 representing the average value of values of signal at 665 nm/signal at 620 nm determined for the PBS negative control, the percentage of activity of the test polypeptide sample relative to the positive control sample ET1 = (F3-T3)×100/(F5-T3) (see Table 6). hETA sequence (NCBI accession number L06622.1).

CC[C@H](C)[C@H](NC(=O)[C@H](CC(=O)O)NC(=O)[C@H](CC(C)C)NC(=O)[C@H](Cc1c[nH]cn1)NC(=O)[C@H](C)NC(=O)[C@H](Cc1ccccc1)NC(=O)[C@H](Cc1ccc(O)cc1)NC(=O)[C@H](CCCCN)NC(=O)[C@H](C)NC(=O)[C@H](CCC(=O)O)NC(=O)[C@H](CCC(=O)O)NC(=O)[C@H](CC(=O)O)NC(=O)CCC(=O)O)C(=O)N[C@H](C(=O)N[C@@H](Cc1c[nH]c2ccccc12)C(=O)O)[C@@H](C)CC [BX-43] (Suc-DEEAKYFAHLDIIW-OH)
activation at 1 µM: 13.5%
activation at 10 µM (@10µM): 17%

CC[C@H](C)[C@H](NC(=O)[C@H](CC(=O)O)NC(=O)[C@H](CCCCN)NC(=O)[C@H](Cc1c[nH]cn1)NC(=O)[C@H](C)NC(=O)[C@H](Cc1ccccc1)NC(=O)[C@H](Cc1ccc(O)cc1)NC(=O)[C@@H](NC(=O)[C@H](CCC(=O)O)NC(=O)[C@H](CCC(=O)O)NC(=O)[C@H](CCC(=O)O)NC(=O)[C@H](CC(=O)O)NC(=O)CCC(=O)O)C(C)C)C(=O)N[C@H](C(=O)N[C@@H](Cc1c[nH]c2ccccc12)C(=O)O)[C@@H](C)CC [BX-45] (Suc-DEEEVYFAHKDIIW-OH)
activation at 1 µM: 14.7%

CC[C@H](C)[C@H](NC(=O)[C@H](CC(=O)O)NC(=O)[C@H](CC(C)C)NC(=O)[C@H](Cc1c[nH]cn1)NC(=O)[C@H](C)NC(=O)[C@H](Cc1ccccc1)NC(=O)[C@H](Cc1ccc(O)cc1)NC(=O)[C@@H]1CCNC(=O)CC[C@H](NC(=O)[C@H](CC(=O)O)NC(=O)CCC(=O)O)C(=O)N[C@@H](CCC(=O)O)C(=O)N[C@@H](C)C(=O)N1)C(=O)N[C@H](C(=O)N[C@@H](Cc1c[nH]c2ccccc12)C(=O)O)[C@@H](C)CC [BX-49] (Suc-DEEA[Dab]YFAHLDIIW-OH; lactam 2-5)
activation at 0.01 µM (@10nM): -20.9%
activation at 0.1 µM (@100nM): -15.4%

CC[C@H](C)[C@H](NC(=O)[C@H](CC(=O)O)NC(=O)[C@@H]1CCCCNC(=O)CC[C@H](NC(=O)[C@H](CCC(=O)O)NC(=O)[C@H](CCC(=O)O)NC(=O)[C@H](CC(=O)O)NC(=O)CCC(=O)O)C(=O)N[C@@H](C(C)C)C(=O)N[C@@H](Cc2ccc(O)cc2)C(=O)N[C@@H](Cc2ccccc2)C(=O)N[C@@H](C)C(=O)N[C@@H](Cc2c[nH]cn2)C(=O)N1)C(=O)N[C@H](C(=O)N[C@@H](Cc1c[nH]c2ccccc12)C(=O)O)[C@@H](C)CC [BX-50, Suc-DEE cyclo(EVYFAHK)DIIW] (Suc-DEEEVYFAHKDIIW-OH; lactam 4-10)
activation at 0.01 µM: 10.1%
activation at 0.1 µM: -6.92%

CC[C@H](C)[C@H](NC(=O)[C@H](CC(=O)O)NC(=O)[C@H](CCCN)NC(=O)[C@H](Cc1c[nH]cn1)NC(=O)[C@H](C)NC(=O)[C@H](Cc1ccccc1)NC(=O)[C@H](Cc1ccc(O)cc1)NC(=O)[C@@H](NC(=O)[C@H](CCC(=O)O)NC(=O)[C@H](CCC(=O)O)NC(=O)[C@H](CCC(=O)O)NC(=O)[C@H](CC(=O)O)NC(=O)CCC(=O)O)C(C)C)C(=O)N[C@H](C(=O)N[C@@H](Cc1c[nH]c2ccccc12)C(=O)O)[C@@H](C)CC [BX-53, Suc-DEEEVYFAHOrnDIIW] (Suc-DEEEVYFAH[Orn]DIIW-OH)
activation at 0.01 µM: -17.6%
activation at 0.1 µM: -17%

CC[C@H](C)[C@H](NC(=O)[C@H](CC(=O)O)NC(=O)[C@H](CCCCNC(=O)COCCOCCNC(=O)COCCOCCNC(=O)CC[C@H](NC(=O)CCCCCCCCCCCCCCCCC(=O)O)C(=O)O)NC(=O)[C@H](Cc1c[nH]cn1)NC(=O)[C@H](C)NC(=O)[C@H](Cc1ccccc1)NC(=O)[C@H](Cc1ccc(O)cc1)NC(=O)[C@@H](NC(=O)[C@H](CCC(=O)O)NC(=O)[C@H](CCC(=O)O)NC(=O)[C@H](CCC(=O)O)NC(=O)[C@H](CC(=O)O)NC(=O)CCC(=O)O)C(C)C)C(=O)N[C@H](C(=O)N[C@@H](Cc1c[nH]c2ccccc12)C(=O)O)[C@@H](C)CC [BX-54] (Suc-DEEEVYFAHK([AEEA-AEEA-γGlu-C18 diacid])DIIW-OH)
activation at 10 µM (@10µM): -18.5%
activation at 100 µM (@100µM): -8.66%

CC[C@H](C)[C@H](NC(=O)[C@H](CC(=O)O)NC(=O)[C@H](CCCCN)NC(=O)[C@H](Cc1c[nH]cn1)NC(=O)[C@H](C)NC(=O)[C@H](Cc1ccccc1)NC(=O)[C@H](Cc1ccc(O)cc1)NC(=O)[C@@H](NC(=O)[C@H](CCC(=O)O)NC(=O)[C@H](CCC(=O)O)NC(=O)[C@H](CCC(=O)O)NC(=O)[C@H](CC(=O)O)NC(=O)/C=C/C(=O)OC)C(C)C)C(=O)N[C@H](C(=O)N[C@@H](Cc1c[nH]c2ccccc12)C(=O)O)[C@@H](C)CC [BX-58] ({Fumaryl(OMe)}-DEEEVYFAHKDIIW-OH)
activation at 10 µM (@10µM): -5.95%
activation at 100 µM (@100µM): -2.01%

CC[C@H](C)[C@H](NC(=O)[C@H](CC(=O)O)NC(=O)[C@H](CCCCNC(=O)CC[C@H](NC(=O)COCCOCCNC(=O)COCCOCCNC(=O)CCCCCCCCCCCCCCCCC(=O)O)C(=O)O)NC(=O)[C@H](Cc1c[nH]cn1)NC(=O)[C@H](C)NC(=O)[C@H](Cc1ccccc1)NC(=O)[C@H](Cc1ccc(O)cc1)NC(=O)[C@@H](NC(=O)[C@H](C)NC(=O)[C@H](CCC(=O)O)NC(=O)[C@H](CCC(=O)O)NC(=O)[C@H](CC(=O)O)NC(=O)CCC(=O)O)C(C)C)C(=O)N[C@H](C(=O)N[C@@H](Cc1c[nH]c2ccccc12)C(=O)O)[C@@H](C)CC [BX-74] (Suc-DEEAVYFAHK([γGlu-AEEA-AEEA-C18 diacid])DIIW-OH)
activation at 10 µM: -2.64%
activation at 100 µM: -13.5%
